Test results published in the NIST ThermoML archive (doi:10.1016/j.fluid.2010.09.006).

Conditions: 345.7 K; Crystal; visual observation

vapor or sublimation pressure: 3000 kPa
Structure (SMILES): c1ccc2ccccc2c1 [naphthalene]
